Test results from ChEMBL document CHEMBL1139410, “Potent CCR4 antagonists: synthesis, evaluation, and docking study of 2,4-diaminoquinazolines” (Bioorg Med Chem, 2008).

Assays:
[1] = target: T1, C-C chemokine receptor type 4 (Homo sapiens, UniProt P51679); assay: Antagonist activity at human CCR4 receptor by [35S]GTPgammaS binding assay; format: functional
T1 sequence (P51679 whole entry): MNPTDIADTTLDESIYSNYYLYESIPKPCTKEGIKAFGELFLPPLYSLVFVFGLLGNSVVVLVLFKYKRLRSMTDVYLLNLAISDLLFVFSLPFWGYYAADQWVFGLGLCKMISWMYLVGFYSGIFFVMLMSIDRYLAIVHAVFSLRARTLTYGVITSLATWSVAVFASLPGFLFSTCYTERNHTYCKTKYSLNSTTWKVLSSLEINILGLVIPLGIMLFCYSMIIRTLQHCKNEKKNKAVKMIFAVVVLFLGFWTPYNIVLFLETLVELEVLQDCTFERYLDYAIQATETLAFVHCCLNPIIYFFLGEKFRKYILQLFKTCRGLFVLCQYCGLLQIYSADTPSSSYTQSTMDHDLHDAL

[2] = target: T2, C-C chemokine receptor type 4 (Homo sapiens) (UniProt P51679); assay: Antagonist activity at human CCR4 receptor assessed as inhibition of CCL22-induced chemotaxis at 1 uM by bioluminescent assay; format: functional
T2 sequence (whole entry): T1 sequence (P51679 whole entry)

[3] = target: T3, C-C chemokine receptor type 4 (Mus musculus) (UniProt P51680); assay: Antagonist activity at mouse CCR4 receptor assessed as inhibition of CCL22-induced chemotaxis at 1 uM by bioluminescent assay; format: functional
T3 sequence (whole entry): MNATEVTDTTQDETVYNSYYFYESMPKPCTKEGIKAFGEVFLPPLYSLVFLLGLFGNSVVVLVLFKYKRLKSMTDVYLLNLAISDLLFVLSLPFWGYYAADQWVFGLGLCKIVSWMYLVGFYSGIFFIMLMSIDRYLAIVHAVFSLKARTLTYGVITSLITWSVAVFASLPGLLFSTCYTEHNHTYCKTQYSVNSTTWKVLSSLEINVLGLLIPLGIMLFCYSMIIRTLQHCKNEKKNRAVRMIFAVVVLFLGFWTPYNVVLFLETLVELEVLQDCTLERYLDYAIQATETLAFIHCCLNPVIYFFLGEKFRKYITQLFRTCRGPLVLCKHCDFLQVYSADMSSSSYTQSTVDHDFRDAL

Mus musculus = assay: Antiinflammatory activity against oxazolone-induced contact hypersensitivity in acute dermatitis BALB/c mouse model assessed as inhibition of ear swelling at 30 mg/kg, sc administered twice daily before 0.5 hrs and after 8 hrs of oxazolone challenge assessed after 24 hrs; format: functional; details: route subcutaneous
[4] = target: T1, C-C chemokine receptor type 4; assay: Displacement of […]CCL22 from human CCR4 receptor by scintillation proximity assay

Row | SMILES | IC50 [1] | inhibition [2] | inhibition [3] | inhibition in vivo at 30 mg/kg (Mus musculus) | IC50 [4]
1 | COc1cc2nc(N3CCC(N4CCCC4)CC3)nc(Nc3ccc(F)cc3)c2cc1OC | 0.031 µM |  |  |  | 
2 | COc1cc2nc(N3CCC(N(C)CCO)CC3)nc(Nc3ccc(Cl)cc3)c2cc1OC | 0.098 µM | 47% |  |  | 
3 | COc1cc2nc(N3CCC(N(C)CCCO)CC3)nc(Nc3ccc(Cl)cc3)c2cc1OC | 0.043 µM |  | 32% |  | 
4 | COc1cc2nc(N3CCC(N4CCCC4)CC3)nc(Nc3ccc(Cl)cc3)c2cc1OC | 0.024 µM |  |  | 42.5% | 0.15 µM
5 | COc1cc2nc(N3CCCN(C4CCCCC4)CC3)nc(Nc3ccc(Cl)cc3)c2cc1OC | 0.55 µM |  |  |  | 
6 | COc1cc2nc(N3CCC(N4CCCC4)CC3)nc(Nc3ccc(F)c(F)c3)c2cc1OC | 0.025 µM |  |  |  | 
7 | COc1cc2nc(N3CCC(N4CCCC4)CC3)nc(Nc3cccc(Br)c3)c2cc1OC | 0.22 µM | 36% | 11% |  | 0.51 µM
8 | COc1cc2nc(N3CCCN(CCN4CCCC4)CC3)nc(Nc3ccc(Cl)cc3)c2cc1OC | 0.15 µM |  |  |  | 
9 | CCN(CC)CCN1CCCN(c2nc(Nc3ccc(Cl)cc3)c3cc(OC)c(OC)cc3n2)CC1 | 0.092 µM | 15% | 42% |  | 
10 | COc1cc2nc(N3CCC(N(C)CCCCO)CC3)nc(Nc3ccc(Cl)cc3)c2cc1OC | 0.061 µM |  | 42% |  | 
11 | COc1cc2nc(N3CCCN(CCN4CCCCC4)CC3)nc(Nc3ccc(Cl)cc3)c2cc1OC | 0.13 µM |  |  |  | 
